According to USRE48335E1, “Polymyxin derivatives as antimicrobial compounds” (priority 2014, dated 2020):
In brackets after ≈: the same amount, converted by molar mass. Positions of bridges follow the written chain, without caps; N, C: chain ends. Non-standard residues stand in square brackets, D forms with d. Residues, ends and D or L forms follow the SMILES beside them. *: point of attachment. dNle = CCCC[C@@H](N)C(=O)O; Octanoyl = CCCCCCCC(=O)*; Dab = NCC[C@H](N)C(=O)O; Abu = CC[C@H](N)C(=O)O; Dap = NC[C@H](N)C(=O)O

What was measured:
Enterobacter cloacae = tested on: Enterobacter cloacae
Method in brief: (§1)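 Broth microdilution, CAMHB, per CLSI M100-S18; compounds as TFA salts; polymyxin B (sulphate) control; read-out MIC.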

Pseudomonas aeruginosa = tested on: Pseudomonas aeruginosa
Method in brief: as §1

Acinetobacter baumannii = tested on: Acinetobacter baumannii
Method in brief: as §1

Klebsiella pneumoniae = tested on: Klebsiella pneumoniae
Method in brief: as §1

A. baumannii ATCC 19606 = assay: In vivo efficacy in mouse blood infection model (neutropenic Swiss mice); details: compound, free base 4 mg/kg intravenously 2 h after inoculation, blood at 4 h
Method in brief: (§2)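 Activity expressed as Δlog10 CFU/mL blood, treated minus saline control, 4 h after a single 4 mg/kg (free base) i.v. dose given 2 h post-infection. Bloodstream infection from i.v. early log-phase inoculum in Swiss mice made neutropenic by i.p. cyclophosphamide on days −4 (150 mg/kg) and −1 (100 mg/kg).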

P. aeruginosa ATCC 27853 = assay: as above; details: compound, free base 4 mg/kg intravenously 2 h after inoculation, blood at 4 h
Method in brief: as §2

[1] = tested on: K. pneumoniae FADDI-KP032; assay: as above; details: compound, free base 4 mg/kg intravenously 2 h after inoculation, blood at 4 h
Method in brief: as §2

CCCCCCCC(=O)N[C@@H](CCN)C(=O)N[C@H](C(=O)N[C@@H](CCN)C(=O)N[C@H]1CCNC(=O)[C@H]([C@@H](C)O)NC(=O)[C@H](CCN)NC(=O)[C@H](CCN)NC(=O)[C@H]([C@@H](C)O)NC(=O)[C@@H](CCCC)NC(=O)[C@H](CCN)NC1=O)[C@@H](C)O [Compound 24] (Octanoyl-[Dab]T[Dab][Dab][Dab][dNle]T[Dab][Dab]T; lactam 4-C)
Minimum inhibitory concentration, Ec FADDI-EC001 (Enterobacter cloacae): <0.125 µg/mL
Minimum inhibitory concentration, Ec FADDI-EC003 (Enterobacter cloacae): <0.125 µg/mL
Minimum inhibitory concentration, Ec FADDI-EC006 (Enterobacter cloacae): 0.25 µg/mL (≈ 0.219 µM)
MIC (Pseudomonas aeruginosa): 0.5 µg/mL (≈ 0.437 µM)
Minimum inhibitory concentration, Pa ATCC 27853 (Pseudomonas aeruginosa): 0.5 µg/mL (≈ 0.437 µM)
Minimum inhibitory concentration, Pa FADDI-PA022 (Pseudomonas aeruginosa): 0.5 µg/mL (≈ 0.437 µM)
Minimum inhibitory concentration, Pa FADDI-PA025 (Pseudomonas aeruginosa): 16 µg/mL (≈ 14 µM)
MIC (Acinetobacter baumannii): 1 µg/mL (≈ 0.875 µM)
Minimum inhibitory concentration, Ab A ATCC 17978 (Acinetobacter baumannii): 1 µg/mL (≈ 0.875 µM)
Minimum inhibitory concentration, Ab ATCC 19606 (Acinetobacter baumannii): 1 µg/mL (≈ 0.875 µM)
Minimum inhibitory concentration, Ab FADDI-AB034 (Acinetobacter baumannii): 1 µg/mL (≈ 0.875 µM)
MIC (Klebsiella pneumoniae): <0.125 µg/mL
Δ log (Treated-Control at 4 h) (A. baumannii ATCC 19606): −2.16 log10 CFU/mL
Δ log (Treated-Control at 4 h) (P. aeruginosa ATCC 27853): −2.31 log10 CFU/mL
Δ log (Treated-Control at 4 h) [1]: −3.21 log10 CFU/mL

CCCCCCCC(=O)N[C@@H](CCN)C(=O)N[C@H](C(=O)N[C@@H](CN)C(=O)N[C@H]1CCNC(=O)[C@H]([C@@H](C)O)NC(=O)[C@H](CCN)NC(=O)[C@H](CCN)NC(=O)[C@H]([C@@H](C)O)NC(=O)[C@@H](CC(C)C)NC(=O)[C@H](CCN)NC1=O)[C@@H](C)O [Compound 33] (Octanoyl-[Dab]T[Dap][Dab][Dab][dL]T[Dab][Dab]T; lactam 4-C)
Minimum inhibitory concentration, Ec FADDI-EC001 (Enterobacter cloacae): <0.125 µg/mL
Minimum inhibitory concentration, Ec FADDI-EC003 (Enterobacter cloacae): <0.125 µg/mL
Minimum inhibitory concentration, Ec FADDI-EC006 (Enterobacter cloacae): 1 µg/mL (≈ 0.885 µM)
MIC (Pseudomonas aeruginosa): 0.5 µg/mL (≈ 0.443 µM)
Minimum inhibitory concentration, Pa ATCC 27853 (Pseudomonas aeruginosa): 0.5 µg/mL (≈ 0.443 µM)
Minimum inhibitory concentration, Pa FADDI-PA022 (Pseudomonas aeruginosa): 0.5 µg/mL (≈ 0.443 µM)
Minimum inhibitory concentration, Pa FADDI-PA025 (Pseudomonas aeruginosa): 8 µg/mL (≈ 7.08 µM)
MIC (Acinetobacter baumannii): 0.5 µg/mL (≈ 0.443 µM)
Minimum inhibitory concentration, Ab A ATCC 17978 (Acinetobacter baumannii): 0.25 µg/mL (≈ 0.221 µM)
Minimum inhibitory concentration, Ab ATCC 19606 (Acinetobacter baumannii): 0.5 µg/mL (≈ 0.443 µM)
Minimum inhibitory concentration, Ab FADDI-AB034 (Acinetobacter baumannii): 0.25 µg/mL (≈ 0.221 µM)
MIC (Klebsiella pneumoniae): <0.125 µg/mL
Δ log (Treated-Control at 4 h) (A. baumannii ATCC 19606): −1.40 log10 CFU/mL
Δ log (Treated-Control at 4 h) (P. aeruginosa ATCC 27853): −1.55 log10 CFU/mL
Δ log (Treated-Control at 4 h) [1]: −2.80 log10 CFU/mL

CCCCCCCC(=O)N[C@@H](CCN)C(=O)N[C@H](C(=O)N[C@@H](CN)C(=O)N[C@H]1CCNC(=O)[C@H]([C@@H](C)O)NC(=O)[C@H](CCN)NC(=O)[C@H](CCN)NC(=O)[C@H](C)NC(=O)[C@@H](CC(C)C)NC(=O)[C@H](CCN)NC1=O)[C@@H](C)O [Compound 35] (Octanoyl-[Dab]T[Dap][Dab][Dab][dL]A[Dab][Dab]T; lactam 4-C)
Minimum inhibitory concentration, Ec FADDI-EC001 (Enterobacter cloacae): <0.125 µg/mL
Minimum inhibitory concentration, Ec FADDI-EC003 (Enterobacter cloacae): 0.25 µg/mL (≈ 0.227 µM)
Minimum inhibitory concentration, Ec FADDI-EC006 (Enterobacter cloacae): <0.125 µg/mL
MIC (Pseudomonas aeruginosa): 0.5 µg/mL (≈ 0.455 µM)
Minimum inhibitory concentration, Pa ATCC 27853 (Pseudomonas aeruginosa): 0.5 µg/mL (≈ 0.455 µM)
Minimum inhibitory concentration, Pa FADDI-PA022 (Pseudomonas aeruginosa): 0.5 µg/mL (≈ 0.455 µM)
Minimum inhibitory concentration, Pa FADDI-PA025 (Pseudomonas aeruginosa): 16 µg/mL (≈ 14.6 µM)
MIC (Acinetobacter baumannii): 0.5 µg/mL (≈ 0.455 µM)
Minimum inhibitory concentration, Ab A ATCC 17978 (Acinetobacter baumannii): 0.5 µg/mL (≈ 0.455 µM)
Minimum inhibitory concentration, Ab ATCC 19606 (Acinetobacter baumannii): 0.5 µg/mL (≈ 0.455 µM)
Minimum inhibitory concentration, Ab FADDI-AB034 (Acinetobacter baumannii): 0.25 µg/mL (≈ 0.227 µM)
MIC (Klebsiella pneumoniae): <0.125 µg/mL
Δ log (Treated-Control at 4 h) (A. baumannii ATCC 19606): −1.60 log10 CFU/mL
Δ log (Treated-Control at 4 h) (P. aeruginosa ATCC 27853): −3.36 log10 CFU/mL
Δ log (Treated-Control at 4 h) [1]: −3.12 log10 CFU/mL

CCCCCCCC(=O)N[C@@H](CCN)C(=O)N[C@H](C(=O)N[C@@H](CN)C(=O)N[C@H]1CCNC(=O)[C@H]([C@@H](C)O)NC(=O)[C@H](CCN)NC(=O)[C@H](CCN)NC(=O)[C@H](CC)NC(=O)[C@@H](CC(C)C)NC(=O)[C@H](CCN)NC1=O)[C@@H](C)O [Compound 46] (Octanoyl-[Dab]T[Dap][Dab][Dab][dL][Abu][Dab][Dab]T; lactam 4-C)
Minimum inhibitory concentration, Ec FADDI-EC001 (Enterobacter cloacae): <0.125 µg/mL
Minimum inhibitory concentration, Ec FADDI-EC003 (Enterobacter cloacae): 0.25 µg/mL (≈ 0.225 µM)
Minimum inhibitory concentration, Ec FADDI-EC006 (Enterobacter cloacae): <0.125 µg/mL
MIC (Pseudomonas aeruginosa): 0.5 µg/mL (≈ 0.449 µM)
Minimum inhibitory concentration, Pa ATCC 27853 (Pseudomonas aeruginosa): 0.5 µg/mL (≈ 0.449 µM)
Minimum inhibitory concentration, Pa FADDI-PA022 (Pseudomonas aeruginosa): 0.5 µg/mL (≈ 0.449 µM)
Minimum inhibitory concentration, Pa FADDI-PA025 (Pseudomonas aeruginosa): 2 µg/mL (≈ 1.8 µM)
MIC (Acinetobacter baumannii): 0.25 µg/mL (≈ 0.225 µM)
Minimum inhibitory concentration, Ab A ATCC 17978 (Acinetobacter baumannii): 0.25 µg/mL (≈ 0.225 µM)
Minimum inhibitory concentration, Ab ATCC 19606 (Acinetobacter baumannii): 0.25 µg/mL (≈ 0.225 µM)
Minimum inhibitory concentration, Ab FADDI-AB034 (Acinetobacter baumannii): 0.25 µg/mL (≈ 0.225 µM)
MIC (Klebsiella pneumoniae): <0.125 µg/mL
Δ log (Treated-Control at 4 h) (A. baumannii ATCC 19606): −1.56 log10 CFU/mL
Δ log (Treated-Control at 4 h) (P. aeruginosa ATCC 27853): −2.53 log10 CFU/mL
Δ log (Treated-Control at 4 h) [1]: −2.93 log10 CFU/mL
